Measurements taken from patent publication US12606561B2, “Substituted pyrazolo[1,5-a][1,3,5]triazines as CDK inhibitors” (QURIENT CO., LTD., priority 2018, dated 2026).

How the values were obtained:
CDK1/Cyclin B = biological target: T1, CDK1/Cyclin B (Homo sapiens, UniProt P06493); assay: Enzymatic assay for CDK1 (LANCE Ultra kinase assay, FRET based); type: biochemical; details: ATP at Km; read-out: CDK1 enzymatic activity IC50
T1 construct: purchased Invitrogen PR4768C
Outline: (§1)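 Kinase activity of each purified CDK/cyclin complex was followed in a FRET format where a Europium anti-phospho-antibody recognises phosphorylated ULight-labeled peptide. ATP was held at its Km.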

CDK2/Cyclin A = biological target: T2, CDK2/Cyclin A (Homo sapiens, UniProt P24941); assay: Enzymatic assay for CDK2 (LANCE Ultra kinase assay, FRET based); type: biochemical; details: ATP at Km
T2 construct: purchased Invitrogen PV6290
Outline: (§2)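 Compounds tested as 8 doses in 4-fold steps against CDK2/Cyclin A ([…]) or CDK5/p25 ([…]), with ATP at its Km and 68 nM ULight-MBP substrate. After 60 min at 23° C., EDTA plus Eu-labelled anti-phospho-MBP added; TR-FRET (615/665 nm) read after another 60 min.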

CDK5/p25 = biological target: T3, CDK5/p25 (Homo sapiens, UniProt Q00535); assay: Enzymatic assay for CDK5 (LANCE Ultra kinase assay, FRET based); type: biochemical; details: ATP at Km
T3 construct: purchased Invitrogen PR8543B
T3 sequence (Q00535 whole entry): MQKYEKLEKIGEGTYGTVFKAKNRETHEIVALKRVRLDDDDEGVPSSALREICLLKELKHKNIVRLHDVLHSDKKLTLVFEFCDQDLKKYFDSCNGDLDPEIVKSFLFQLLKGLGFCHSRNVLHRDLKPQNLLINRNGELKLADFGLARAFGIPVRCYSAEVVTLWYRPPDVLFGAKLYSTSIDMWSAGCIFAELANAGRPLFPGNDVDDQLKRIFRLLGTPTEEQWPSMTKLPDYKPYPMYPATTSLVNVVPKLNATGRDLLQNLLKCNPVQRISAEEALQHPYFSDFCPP
T3 sequence (Q15078 99-307 partner limits assumed): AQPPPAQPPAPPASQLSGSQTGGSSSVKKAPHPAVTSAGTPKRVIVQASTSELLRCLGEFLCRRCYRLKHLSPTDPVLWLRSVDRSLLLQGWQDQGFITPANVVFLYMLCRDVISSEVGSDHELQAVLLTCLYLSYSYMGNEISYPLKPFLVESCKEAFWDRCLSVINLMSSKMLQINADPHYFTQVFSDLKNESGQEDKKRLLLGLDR
Outline: as §2

CDK7/Cyclin H/MNAT1 = biological target: T4, CDK7/Cyclin H/MNAT1 (Homo sapiens, UniProt P50613); assay: Enzymatic assay for CDK7 (LANCE Ultra kinase assay, FRET based); type: biochemical; details: for IC50: ATP at Km
T4 construct: purchased Invitrogen PR6749B
T4 sequence (P50613 whole entry): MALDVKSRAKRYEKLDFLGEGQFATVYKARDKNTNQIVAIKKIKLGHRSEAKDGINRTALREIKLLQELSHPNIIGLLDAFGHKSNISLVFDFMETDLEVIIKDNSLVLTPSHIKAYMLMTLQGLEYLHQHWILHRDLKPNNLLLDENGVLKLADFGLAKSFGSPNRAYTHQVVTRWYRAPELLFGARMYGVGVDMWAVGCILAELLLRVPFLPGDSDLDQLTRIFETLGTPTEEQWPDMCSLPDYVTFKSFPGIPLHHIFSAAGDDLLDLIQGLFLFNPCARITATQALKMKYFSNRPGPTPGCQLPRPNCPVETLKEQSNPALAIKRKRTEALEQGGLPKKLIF
T4 sequence (P51946 whole entry partner): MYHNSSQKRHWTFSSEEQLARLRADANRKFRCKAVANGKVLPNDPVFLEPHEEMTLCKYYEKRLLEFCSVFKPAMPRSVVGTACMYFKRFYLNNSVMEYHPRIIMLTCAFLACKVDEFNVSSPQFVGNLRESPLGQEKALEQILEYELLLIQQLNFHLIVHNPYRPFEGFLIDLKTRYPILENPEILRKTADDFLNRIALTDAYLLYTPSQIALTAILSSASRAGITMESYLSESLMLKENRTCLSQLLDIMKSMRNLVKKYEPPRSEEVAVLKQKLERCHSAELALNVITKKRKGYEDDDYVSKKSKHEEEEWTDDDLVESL
T4 sequence (P51948 whole entry partner): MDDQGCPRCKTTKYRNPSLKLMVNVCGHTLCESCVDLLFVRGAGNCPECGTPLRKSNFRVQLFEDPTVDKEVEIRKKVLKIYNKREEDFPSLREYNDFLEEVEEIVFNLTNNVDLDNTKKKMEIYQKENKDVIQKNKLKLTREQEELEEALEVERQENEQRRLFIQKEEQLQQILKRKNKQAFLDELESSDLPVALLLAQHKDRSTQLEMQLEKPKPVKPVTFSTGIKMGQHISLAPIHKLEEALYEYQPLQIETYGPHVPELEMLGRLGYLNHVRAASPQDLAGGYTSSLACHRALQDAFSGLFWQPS
Outline: as §1

A2780 = A2780 viability assay (CellTiter-Glo, 72 hours); type: cell-based; details: Homo sapiens; A2780 cells
Outline: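 Each line was plated at its own density (1×10^4, 5×10^3 and 1×10^3 cells/well for MV4-11, OVCAR-3 and A2780 respectively) in RPMI-1640 with 10% FBS. Treatment with compound, 0.0015 uM to 10 uM and DMSO under 0.1%, lasted 72 h. Surviving cells were quantified by CellTiter-Glo.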

OVCAR-3 = OVCAR-3 viability assay (CellTiter-Glo, 72 hours); type: cell-based; details: Homo sapiens; OVCAR-3 cells
Procedure: Human […] cell line, MV4-11_(ATCC, Cat #CRL-9591), NSCLC (Non-small cell lung cancer) cell line H460 (ATCC, Cat #HTB-177), A2780 (ECACC, Cat #93112519) and OVCAR-3(ATCC, Cat #HTB-161) were obtained from ATCC. Cells were grown in RPMI-1640 media (Invitrogen, Cat #22400-089) supplemented with 10% FBS (Invitrogen, Cat #10099141) and 1% penicillin/streptomycin (Invitrogen, Cat #15070063) and cultured at 37° C., 5% CO2 in a humidified chamber. All cell lines were routinely tested for mycoplasma.
To effect of the CDK7 inhibitor to inhibit the growth of target cancer cells, viability assay were conducted a 72 hour time period. Briefly, the candidate cell line was plated in 96 well plate at the following density of cells respectively. 1×10^4 cells/well for MV4-11, 5×10^3 for H460 and OVCAR-3, and 1×10^3 for A2780. After 24 hours, the cells were treated with various concentrations of the compound (ranging from 0.0015 uM to 10 uM). DMSO solvent without compound served as a control and final DMSO concentration lest than 0.1%. After 72 hours of incubation at 37° C., 5% CO2 incubator, cells were analyzed for the viability using the CellTiter-Glo Luminescent Cell Viability Assay (Promega, Cat #G7570). All viability assays were performed in duplicate and Luminescence was read using an Envision (Perkin Elmer, USA). Data was analyzed using XLfit software.

T1 sequence (P06493 whole entry): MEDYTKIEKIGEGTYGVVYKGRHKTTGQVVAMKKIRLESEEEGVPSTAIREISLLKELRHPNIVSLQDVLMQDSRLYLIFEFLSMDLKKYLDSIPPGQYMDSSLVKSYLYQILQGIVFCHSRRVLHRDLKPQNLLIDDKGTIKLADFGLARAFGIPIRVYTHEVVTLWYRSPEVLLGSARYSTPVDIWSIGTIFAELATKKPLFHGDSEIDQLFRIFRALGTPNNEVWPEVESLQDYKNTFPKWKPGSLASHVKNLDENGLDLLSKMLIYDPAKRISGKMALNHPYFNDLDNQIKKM
T1 sequence (P14635 whole entry partner): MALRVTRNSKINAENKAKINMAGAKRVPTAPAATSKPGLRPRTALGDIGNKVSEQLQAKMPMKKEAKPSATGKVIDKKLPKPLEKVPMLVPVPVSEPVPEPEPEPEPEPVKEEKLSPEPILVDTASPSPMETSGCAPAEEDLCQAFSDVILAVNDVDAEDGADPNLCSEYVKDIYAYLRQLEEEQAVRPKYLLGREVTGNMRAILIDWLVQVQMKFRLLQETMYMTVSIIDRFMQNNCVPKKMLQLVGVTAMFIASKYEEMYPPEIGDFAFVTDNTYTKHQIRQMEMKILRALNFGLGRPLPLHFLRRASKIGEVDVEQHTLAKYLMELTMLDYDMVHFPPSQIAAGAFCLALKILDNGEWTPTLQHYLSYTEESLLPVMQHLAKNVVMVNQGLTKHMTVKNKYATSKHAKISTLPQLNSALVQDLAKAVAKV

| Compound | IC50 (CDK1/Cyclin B) [nM] | IC50 (CDK2/Cyclin A) [nM] | IC50 (CDK5/p25) [nM] | IC50 (CDK7/Cyclin H/MNAT1) [nM] | CDK1/CDK7: Selectivity of CDK7 inhibition over CDK1 inhibition (CDK7/Cyclin H/MNAT1) | CDK2/CDK7: Selectivity of CDK7 inhibition over CDK2 inhibition (CDK7/Cyclin H/MNAT1) | CDK5/CDK7: Selectivity of CDK7 inhibition over CDK5 inhibition (CDK7/Cyclin H/MNAT1) | IC50 (A2780) [nM] | IC50 (OVCAR-3) [nM] |
| --- | --- | --- | --- | --- | --- | --- | --- | --- | --- |
| C=C(F)C(=O)Nc1ccc2c(-c3ccccc3CNc3nc(N4CCC(OC(C)C)CC4)nc4c(C(C)C)cnn34)nccc2c1 [Compound 89] | > 1000 | > 1000 | > 1000 | > 1000 | C (C indicates [fold] ≤ 50) | C (C indicates [fold] ≤ 50) | C (C indicates [fold] ≤ 50) | 1000 to 10000 | 1000 to 10000 |
| C=C(F)C(=O)Nc1ccc2c(-c3ccccc3CNc3nc(N4CCC(F)CC4)nc4c(C(C)C)cnn34)nccc2c1 [Compound 90] | > 1000 | > 1000 | > 1000 | 100 to 1000 | B (B indicates 50 < [fold] ≤ 500) | B (B indicates 50 < [fold] ≤ 500) | B (B indicates 50 < [fold] ≤ 500) | < 1000 | < 1000 |
| C=C(F)C(=O)Nc1ccc2c(-c3ccccc3CNc3cc(N4CCC(OC)CC4)nc4c(C(C)C)cnn34)nccc2c1 [Compound 91] | > 1000 | > 1000 | > 1000 | 100 to 1000 | B (B indicates 50 < [fold] ≤ 500) | B (B indicates 50 < [fold] ≤ 500) | B (B indicates 50 < [fold] ≤ 500) | < 1000 | < 1000 |
| C=C(F)C(=O)Nc1ccc2c(-c3ccccc3CNc3nc(NC4CCOC4)nc4c(C(C)C)cnn34)nccc2c1 (stereo not drawn) [Compound 92] | > 1000 | > 1000 | > 1000 | 100 to 1000 | B (B indicates 50 < [fold] ≤ 500) | B (B indicates 50 < [fold] ≤ 500) | B (B indicates 50 < [fold] ≤ 500) | < 1000 | < 1000 |
| C=C(F)C(=O)Nc1cccc2ccc(-c3cccc(C)c3CNc3nc(N4CCC(OC)CC4)nc4c(C(C)C)cnn34)nc12 [Compound 93] | > 1000 | > 1000 | > 1000 | > 1000 | C (C indicates [fold] ≤ 50) | C (C indicates [fold] ≤ 50) | C (C indicates [fold] ≤ 50) | < 1000 | 1000 to 10000 |
| C=C(F)C(=O)Nc1ccc2c(-c3ccccc3CNc3cc(NCC4CNCCO4)nc4c(C(C)C)cnn34)nccc2c1 (stereo not drawn) [Compound 94] | > 1000 | > 1000 | > 1000 | < 100 | A (A indicates [fold] > 500) | A (A indicates [fold] > 500) | A (A indicates [fold] > 500) | < 1000 | < 1000 |
| C=CC(=O)Nc1ccc2c(-c3ccccc3CNc3nc(N[C@H]4CC[C@H](OC)CC4)nc4c(C(C)C)cnn34)nccc2c1 [Compound 95] | > 1000 | > 1000 | > 1000 | < 100 | A (A indicates [fold] > 500) | A (A indicates [fold] > 500) | A (A indicates [fold] > 500) | < 1000 | < 1000 |
| C=C(F)C(=O)Nc1ccc2c(-c3ccccc3CNc3nc(N[C@H]4CC[C@@H](OC)C4)nc4c(C(C)C)cnn34)nccc2c1 [Compound 96] | > 1000 | > 1000 | > 1000 | 100 to 1000 | B (B indicates 50 < [fold] ≤ 500) | B (B indicates 50 < [fold] ≤ 500) | B (B indicates 50 < [fold] ≤ 500) | < 1000 | < 1000 |
| C=C(F)C(=O)Nc1ccc2c(-c3ccccc3CNc3nc(NC4CC(OC)C4)nc4c(C(C)C)cnn34)nccc2c1 (stereo not drawn) [Compound 99] | > 1000 | > 1000 | > 1000 | 100 to 1000 | B (B indicates 50 < [fold] ≤ 500) | B (B indicates 50 < [fold] ≤ 500) | B (B indicates 50 < [fold] ≤ 500) | < 1000 | < 1000 |
| C=C(F)C(=O)Nc1ccc2c(-c3ccccc3CNc3nc(N4CCCC(OC)CC4)nc4c(C(C)C)cnn34)nccc2c1 (stereo not drawn) [Compound 100] | > 1000 | > 1000 | > 1000 | > 1000 | C (C indicates [fold] ≤ 50) | C (C indicates [fold] ≤ 50) | C (C indicates [fold] ≤ 50) | 1000 to 10000 | 1000 to 10000 |
| CC(C)c1cnn2c(NCc3ccccc3-c3nccc4cc(NC(=O)/C=C/CN(C)C)ccc34)nc(N3CCc4sccc4C3)nc12 [Compound 101] | > 1000 | > 1000 | > 1000 | 100 to 1000 | B (B indicates 50 < [fold] ≤ 500) | B (B indicates 50 < [fold] ≤ 500) | B (B indicates 50 < [fold] ≤ 500) | < 1000 | < 1000 |
| CC(C)c1cnn2c(NCc3ccccc3-c3nccc4cc(NC(=O)/C=C/CN(C)C)ccc34)nc(N3C[C@H]4CC[C@@H](C3)O4)nc12 [Compound 102] | > 1000 | > 1000 | > 1000 | 100 to 1000 | B (B indicates 50 < [fold] ≤ 500) | B (B indicates 50 < [fold] ≤ 500) | B (B indicates 50 < [fold] ≤ 500) | < 1000 | < 1000 |
